Experimental findings from US20230271965A1, “BICYCLIC HETEROARENES AND METHODS OF THEIR USE” (Kineta, Inc., priority 2020, published 2023) are described below.

The structures appear in SMILES notation. A value given as a limit tells only on which side of the number the result lay.

One assay deals with FAB1 TDP-43 yeast strain. The experiment in a line: Propidium iodide viability assay, control FAB1 TDP-43 yeast strain. To be noted: across a range of compound concentrations (only 0.23 μM is shown), FIG. 5. Type of assay: cell-based. As to the method: Generation of TDP-43 yeast model expressing human PIKfyve. Human PIKFYVE (“entry clone”) was cloned into pAG416GPDccdB (“destination vector”) according to standard Gateway cloning protocols (Invitrogen, Life Technologies). The resulting pAG416GPD-PIKFYVE plasmids were amplified in E. coli and plasmid identity confirmed by restriction digest and Sanger sequencing. […]
Transformed yeast were plated on solid agar plates with complete synthetic media lacking uracil (CSM-ura) and containing 2% glucose. […] Multiple independent isolates were further evaluated for cytotoxicity and TDP-43 expression levels.
Viability Assay. A control yeast strain with the wild-type yeast FAB1 gene and TDP-43 (“FAB1 TDP-43”, carries empty pAG416 plasmid), and the “PIKFYVE TDP-43” yeast strain, were assessed for toxicity using a propidium iodide viability assay. […] Wells containing DMSO alone were also evaluated as controls for compound effects. […]
Upon the completion of incubation, cultures were assayed for viability using propidium iodide (PI) to stain for dead/dying cells. […] A benchtop flow cytometer (Miltenyi MACSquant) was then used to assess red fluorescence ([…]), forward scatter, and side scatter (with following settings: gentle mix, high flow rate, fast measurement, 10,000 events). […]

Assay [1] concerns PIKFYVE TDP-43 yeast strain. The experiment in a line: Propidium iodide viability assay, PIKFYVE TDP-43 yeast strain. The format is cell-based. To be noted: 0.23 μM, FIG. 6. The source says:
Generation of TDP-43 yeast model expressing human PIKfyve. Human PIKFYVE (“entry clone”) was cloned into pAG416GPDccdB (“destination vector”) according to standard Gateway cloning protocols (Invitrogen, Life Technologies). The resulting pAG416GPD-PIKFYVE plasmids were amplified in E. coli and plasmid identity confirmed by restriction digest and Sanger sequencing. Lithium acetate/polyethylene glycol-based transformation was used to introduce the above PIKFYVE plasmid into a BY4741 yeast strain auxotrophic for the ura3 gene and deleted for two transcription factors that regulate the xenobiotic efflux pumps, a major efflux pump, and FAB1, the yeast ortholog of PIKFYVE (MATa, snq2::KILeu2; pdr3::KIura3; pdr1::NATMX; fab1::G418^R, his3; leu2; ura3; met15; LYS2+) (FIG. 2).
Transformed yeast were plated on solid agar plates with complete synthetic media lacking uracil (CSM-ura) and containing 2% glucose. Individual colonies harboring the control or PIKFYVE TDP-43 plasmids were recovered. A plasmid containing wild-type TDP-43 under the transcriptional control of the GAL1 promoter and containing the hygromycin-resistance gene as a selectable marker was transformed into the fab1::G418^R pAG416GPD-PIKFYVE yeast strain (FIG. 1). Transformed yeast were plated on CSM-ura containing 2% glucose and […] after overnight recovery in media lacking antibiotic. Multiple independent isolates were further evaluated for cytotoxicity and TDP-43 expression levels.
Viability Assay. A control yeast strain with the wild-type yeast FAB1 gene and TDP-43 (“FAB1 TDP-43”, carries empty pAG416 plasmid), and the “PIKFYVE TDP-43” yeast strain, were assessed for toxicity using a propidium iodide viability assay. Both yeast strains were transferred from solid CSM-ura/2% glucose agar plates into 3 mL of liquid CSM-ura/2% glucose media for 6-8 hours at 30° C. with aeration. Yeast cultures were then diluted to an optical density at 600 nm wavelength (OD600) of 0.005 in 3 mL of CSM-ura/2% raffinose and grown overnight at 30° C. with aeration to an OD600 of 0.3-0.8. Log-phase overnight cultures were diluted to OD600 of 0.005 in CSM-ura containing either 2% raffinose or galactose and 150 μL dispensed into each well of a flat bottom 96-well plates. Compounds formulated in 100% dimethyl sulfoxide (DMSO) were serially diluted in DMSO and 1.5 μL diluted compound transferred to the 96-well plates using a multichannel pipet. Wells containing DMSO alone were also evaluated as controls for compound effects. Tested concentrations ranged from 15 μM to […]. Cultures were immediately mixed to ensure compound distribution and covered plates incubated at 30° C. for 24 hours in a stationary, humified incubator.
Upon the completion of incubation, cultures were assayed for viability using propidium iodide (PI) to stain for dead/dying cells. A working solution of PI was made where, for each plate, 1 μL of 10 mM PI was added to 10 mL of CSM-ura (raffinose or galactose). The final PI solution (50 μL/well) was dispensed into each well of a new round bottom 96-well plate. The overnight 96-well assay plate was then mixed with a multichannel pipet and 50 μL transferred to the PI-containing plate. This plate was then incubated for 30 minutes at 30° C. in the dark. A benchtop flow cytometer (Miltenyi MACSquant) was then used to assess red fluorescence ([…]), forward scatter, and side scatter (with following settings: gentle mix, high flow rate, fast measurement, 10,000 events). Intensity histograms were then gated for “PI-positive” or “PI-negative” using the raffinose and galactose cultures treated with DMSO as controls. The DMSO controls for raffinose or galactose-containing cultures were used to determine the window of increased cell death and this difference set to 100. All compounds were similarly gated and then compared to this maximal window to establish the percent reduction in PI-positive cells.

For assay [2], the system named is PIKFYVE TDP-43 yeast strain. The description is as above. The following applies: concentrations ranging from 0.5 mM to less than 100 nM. The format is cell-based.
The target in assay [3] is T1, PIKfyve (PIKFYVE-NanoLuc fusion in HEK293 cells) (Homo sapiens, UniProt Q9Y2I7).
T1 construct: containing a full-length PIKfyve according to manufacturer's specifications; host or cells: HEK293
Briefly: NanoBRET TE Intracellular Kinase Assay, K-8 (Promega) cell-based assay. The following applies: 2 hours, read-out: hPIKfyve BRET IC50. Here is the method:
NanoBRET™ TE Intracellular Kinase Assay, K-8 (Promega) Cell-Based Assay. Intracellular inhibition of PIKfyve was assayed using Promega's NanoBRET™ TE Intracellular Kinase Assay, K-8 according to manufacturer's instructions. A dilution series of test compounds was added for 2 hours to HEK293 cells transfected for a minimum of 20 hours with PIKFYVE-NanoLuc® Fusion Vector (Promega) containing a full-length PIKfyve according to manufacturer's specifications in a 96-well plate. Kinase activity was detected by addition of a NanoBRET™ tracer reagent, which was a proprietary PIKfyve inhibitor appended to a fluorescent probe (BRET, bioluminescence resonance energy transfer). Test compounds were tested at concentrations of 10, 3, 1, 0.3, 0.1, 0.03, 0.01, 0.003 μM. BRET signals were measured by a GloMax® Discover Multimode Microplate Reader (Promega) using 0.3 sec/well integration time, 450BP donor filter and 600LP acceptor filters. Active test compounds that bound PIKfyve and displaced the tracer reduced BRET signal. IC50 values were then calculated by fitting the data to the normalized BRET ratio.

Assay [4] concerns the target T2, full-length human PIKFYVE (GST-PIKFYVE) (Homo sapiens, UniProt Q9Y2I7, L932S/Q1183K/Q995L/S1033A/S696N/T998S).
T2 construct: A full-length human PIKFYVE [1-2098 (end) amino acids; purchased Carna Biosciences; host or cells: baculovirus expression system
The experiment in a line: PIKfyve biochemical assay (ADP-Glo Kinase assay, Carna Biosciences). To be noted: ADP-Glo, full-length human PIKFYVE; read-out: hPIKfyve IC50. As to the method:
PIKfyve Biochemical Assay. The biochemical PIKFyve inhibition assays were run by Carna Biosciences according to proprietary methodology based on the Promega ADP-Glo™ Kinase assay. […] GST-PIKFYVE was purified by using glutathione sepharose chromatography and used in an ADP-Glo™ Kinase assay (Promega). Reactions were set up by adding the test compound solution, substrate solution, ATP solution and kinase solution, each at 4×final concentrations. Reactions were prepared with assay buffer (50 mM MOPS, 1 mM DTT, pH7.2), mixed, and incubated in black 384 well polystyrene plates for 1 hour at room temperature. ADP-Glo™ reagent was then added for 40 minutes, followed by kinase detection reagent for an additional 40 minutes. The kinase activity was evaluated by detecting relative light units on a luminescence plate reader. Samples were run in duplicate from 10 μM to 3 nM. […] IC50 values were calculated from concentration vs % inhibition curves by fitting to a four-parameter logistic curve.
The biochemical PIKFyve inhibition assays were run by Carna Biosciences according to proprietary methodology based on the Promega ADP-Glo™ Kinase assay. […] GST-PIKFYVE was purified by using glutathione sepharose chromatography and used in an ADP-Glo™ Kinase assay (Promega).
Reactions were set up by adding the test compound solution, substrate solution, ATP solution and kinase solution, each at 4×final concentrations. Reactions were prepared with assay buffer (50 mM MOPS, 1 mM DTT, pH7.2), mixed, and incubated in black 384 well polystyrene plates for 1 hour at room temperature. ADP-Glo™ reagent was then added for 40 minutes, followed by kinase detection reagent for an additional 40 minutes. The kinase activity was evaluated by detecting relative light units on a luminescence plate reader. Samples were run in duplicate from 10 uM to 3 nM. […] IC50 values were calculated from concentration vs % inhibition curves by fitting to a four-parameter logistic curve.

T1 sequence (Q9Y2I7 whole entry, the tested form may be a part): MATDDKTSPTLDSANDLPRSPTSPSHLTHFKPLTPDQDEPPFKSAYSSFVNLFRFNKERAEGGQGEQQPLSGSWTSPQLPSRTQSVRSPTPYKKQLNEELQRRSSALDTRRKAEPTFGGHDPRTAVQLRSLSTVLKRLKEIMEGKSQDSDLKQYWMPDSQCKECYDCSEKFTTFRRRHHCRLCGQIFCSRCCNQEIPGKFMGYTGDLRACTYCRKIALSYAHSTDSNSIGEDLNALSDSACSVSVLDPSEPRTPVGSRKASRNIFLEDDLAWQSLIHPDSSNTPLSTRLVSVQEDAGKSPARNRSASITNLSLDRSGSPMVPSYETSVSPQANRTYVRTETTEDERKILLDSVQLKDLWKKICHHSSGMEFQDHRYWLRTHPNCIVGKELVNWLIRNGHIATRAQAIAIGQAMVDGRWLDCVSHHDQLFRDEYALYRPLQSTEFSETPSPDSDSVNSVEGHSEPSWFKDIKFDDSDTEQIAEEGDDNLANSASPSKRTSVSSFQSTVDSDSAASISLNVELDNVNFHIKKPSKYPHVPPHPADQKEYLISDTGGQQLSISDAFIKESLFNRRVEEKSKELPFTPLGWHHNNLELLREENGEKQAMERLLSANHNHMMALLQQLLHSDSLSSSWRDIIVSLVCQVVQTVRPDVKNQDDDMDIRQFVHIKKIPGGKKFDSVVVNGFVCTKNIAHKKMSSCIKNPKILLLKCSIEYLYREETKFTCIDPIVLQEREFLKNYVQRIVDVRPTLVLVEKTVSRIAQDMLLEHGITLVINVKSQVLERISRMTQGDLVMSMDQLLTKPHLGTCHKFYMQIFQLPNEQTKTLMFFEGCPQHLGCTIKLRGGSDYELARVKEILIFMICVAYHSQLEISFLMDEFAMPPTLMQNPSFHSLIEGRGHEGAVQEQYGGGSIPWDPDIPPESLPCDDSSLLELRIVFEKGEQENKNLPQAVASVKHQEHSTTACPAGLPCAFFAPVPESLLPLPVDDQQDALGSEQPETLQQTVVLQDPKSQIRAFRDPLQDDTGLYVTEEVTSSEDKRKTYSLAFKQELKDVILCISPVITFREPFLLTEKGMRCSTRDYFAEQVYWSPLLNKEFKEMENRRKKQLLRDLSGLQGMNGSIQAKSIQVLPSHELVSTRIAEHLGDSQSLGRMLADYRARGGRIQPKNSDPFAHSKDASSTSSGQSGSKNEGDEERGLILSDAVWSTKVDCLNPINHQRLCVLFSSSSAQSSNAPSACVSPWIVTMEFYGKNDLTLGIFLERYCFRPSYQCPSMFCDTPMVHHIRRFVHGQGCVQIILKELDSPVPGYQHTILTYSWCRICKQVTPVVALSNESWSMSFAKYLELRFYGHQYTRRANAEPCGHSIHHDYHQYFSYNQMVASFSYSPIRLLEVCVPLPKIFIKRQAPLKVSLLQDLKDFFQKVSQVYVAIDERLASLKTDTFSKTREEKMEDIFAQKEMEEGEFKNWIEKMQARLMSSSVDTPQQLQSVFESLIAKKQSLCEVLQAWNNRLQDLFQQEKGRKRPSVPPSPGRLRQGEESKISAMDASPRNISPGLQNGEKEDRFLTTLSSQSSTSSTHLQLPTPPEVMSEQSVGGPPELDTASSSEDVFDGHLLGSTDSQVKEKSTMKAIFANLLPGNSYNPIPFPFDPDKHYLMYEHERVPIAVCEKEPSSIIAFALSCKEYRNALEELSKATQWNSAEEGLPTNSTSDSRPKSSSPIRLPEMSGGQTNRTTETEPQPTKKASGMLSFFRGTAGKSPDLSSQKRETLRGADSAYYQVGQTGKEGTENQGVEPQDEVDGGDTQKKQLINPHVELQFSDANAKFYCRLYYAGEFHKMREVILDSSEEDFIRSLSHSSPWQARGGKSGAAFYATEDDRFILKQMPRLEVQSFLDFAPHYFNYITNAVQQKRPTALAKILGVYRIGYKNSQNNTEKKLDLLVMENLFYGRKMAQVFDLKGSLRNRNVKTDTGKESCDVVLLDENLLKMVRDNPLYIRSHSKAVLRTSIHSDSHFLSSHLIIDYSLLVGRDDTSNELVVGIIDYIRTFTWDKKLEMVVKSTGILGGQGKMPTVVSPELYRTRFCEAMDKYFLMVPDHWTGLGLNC
T2 sequence (Q9Y2I7 whole entry S696N/L932S/Q995L/T998S/S1033A/Q1183K): as the sequence (Q9Y2I7 whole entry, the tested form may be a part) above, with S696N, L932S, Q995L, T998S, S1033A, Q1183K counted along it

`Cc1cccc(/C=N/Nc2cc(N3CCOCC3)n3nc(-c4ccncc4)cc3n2)c1` [APY0201]: the “increase in viable cells in FAB1 TDP-43” value with FAB1 TDP-43 yeast strain is “no increase in viable cells”. For the same compound, the “population of propidium iodide-positive dead cells in PIKFYVE TDP-43” value in assay [1] was “reduced the population of propidium iodide-positive dead cells”. The “viability in PIKFYVE TDP-43 model” value in assay [2] was “increased viability”.
As for `c1ccc(N2CCc3c(OCCc4ccccn4)nc(N4CCOCC4)nc32)cc1` [Compound 1, 4-(7-phenyl-4-(2-(pyridin-2-yl)ethoxy)-6,7-dihydro-5H-pyrrolo[2,3-d]pyrimidin-2-yl)morpholine], the IC50 in assay [3] is 10 to 100 nM.
`c1ccc(N2CCc3c(OCc4cccnc4)nc(N4CCOCC4)nc32)cc1` [Compound 3]: the IC50 in assay [3] fell in the range of 10 to 100 nM.
For `c1ccc(N2CCc3c(OCc4cccnn4)nc(N4CCOCC4)nc32)cc1` [Compound 5], in assay [3], the IC50 lay within 100 to 1000 nM.
In the case of `c1cncc(N2CCc3c(OCCC4CCCO4)nc(N4CCOCC4)nc32)c1` (stereo not shown) [Compound 10], the IC50 is less than 10 nM in assay [4] and 100 to 1000 nM in assay [3].
As for `COc1nc(N2CCOCC2)nc2c1CCN2c1ccccc1` [Compound 16, 4-(4-methoxy-7-phenyl-6,7-dihydro-5H-pyrrolo[2,3-d]pyrimidin-2-yl)morpholine], the IC50 in assay [3] is 100 to 1000 nM.
Turning to `N#Cc1ccc(N2CCc3c(OCc4cccnc4)nc(N4CCOCC4)nc32)cc1` [Compound 21, 4-(2-morpholino-4-(pyridin-3-ylmethoxy)-5H-pyrrolo[2,3-d]pyrimidin-7(6H)-yl)benzonitrile], in assay [3], the IC50 lay in the range of 100 to 1000 nM.
For the compound `c1ccc(N2CCc3c(Oc4cccnc4)nc(N4CCOCC4)nc32)cc1` [Compound 22, 4-(7-phenyl-4-(pyridin-3-yloxy)-6,7-dihydro-5H-pyrrolo[2,3-d]pyrimidin-2-yl)morpholine], the IC50 is less than 10 nM in assay [4] and 100 to 1000 nM in assay [3].
Regarding `c1cncc(Oc2nc(N3CCOCC3)nc3c2CCN3c2cccnc2)c1` [Compound 24, 4-(7-(pyridin-3-yl)-4-(pyridin-3-yloxy)-6,7-dihydro-5H-pyrrolo[2,3-d]pyrimidin-2-yl)morpholine], the IC50 lay within 10 to 100 nM in assay [4] and 1000 to 10000 nM in assay [3].
For `OCC(O)COc1nc(N2CCOCC2)nc2c1CCN2c1ccccc1` (stereo not shown) [Compound 25, 3-((2-morpholino-7-phenyl-6,7-dihydro-5H-pyrrolo[2,3-d]pyrimidin-4-yl)oxy)propane-1,2-diol], the IC50 in assay [3] was 100 to 1000 nM.
As for `c1ccc(N2CCc3c(-c4ccncc4)nc(N4CCOCC4)nc32)cc1` [Compound 41, 4-(7-phenyl-4-(pyridin-4-yl)-6,7-dihydro-5H-pyrrolo[2,3-d]pyrimidin-2-yl)morpholine], the IC50 in assay [4] is less than 10 nM; in assay [3] it was 10 to 100 nM.
As for `CN1CCC(COc2nc(N3CCOCC3)nc3c2CCN3c2cccnc2)CC1` [Compound 111], the IC50 in assay [4] fell in the range of 100 to 1000 nM; in assay [3], 1000 to 10000 nM.
